Assay results from PubChem BioAssay AID248 (DTP/NCI, 2004).
Inconclusive results and toxic doses are left out. Cut-off read from the data, not from the text of the source: active = T/C of 150% or more; inactive = T/C below 125%.

Tested on: L1210 leukemia ip in BDF1 mice, survival T/C
Test: NCI In Vivo Anticancer Drug Screen. Data for tumor model L1210 Leukemia (intraperitoneal) in B6D2F1 (BDF1) mice
Settings: endpoint: mean survival time, higher = longer survival
Procedure, shortened: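 In this screen, tumor-bearing mice given compound are compared to those given vehicle, and their survival values are reported as a treated-to-control quotient.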

[1] = dose: 50.0 mg/kg/injection, schedule: Q01DX009 (ip), vehicle: saline
[2] = dose: 100.0 mg/kg/injection, schedule: Q01DX001 (ip), vehicle: saline
[3] = dose: 100.0 mg/kg/injection, schedule: Q01DX009 (ip), vehicle: saline
[4] = dose: 100.0 mg/kg/injection, schedule: Q01DX009 (ip), vehicle: saline with Tween-80
[5] = dose: 200.0 mg/kg/injection, schedule: Q01DX009 (ip), vehicle: saline with Tween-80
[6] = dose: 400.0 mg/kg/injection, schedule: Q01DX009 (ip), vehicle: saline with Tween-80
[7] = dose: 200.0 mg/kg/injection, schedule: Q01DX001 (ip), vehicle: saline
[8] = dose: 400.0 mg/kg/injection, schedule: Q01DX001 (ip), vehicle: saline
[9] = dose: 100.0 mg/kg/injection, schedule: Q01DX009 (ip), vehicle: Klucel (hydroxypropylcellulose) (HPC)
[10] = dose: 200.0 mg/kg/injection, schedule: Q01DX009 (ip), vehicle: Klucel (hydroxypropylcellulose) (HPC)
[11] = dose: 400.0 mg/kg/injection, schedule: Q01DX009 (ip), vehicle: Klucel (hydroxypropylcellulose) (HPC)
[12] = dose: 50.0 mg/kg/injection, schedule: Q01DX009 (ip), vehicle: Klucel (hydroxypropylcellulose) (HPC)

Measured: T/C

CN(C)c1ccc2c(c1)Cc1cc(N=C3C=CC(=O)O3)ccc1-2
inactive: dose: 25.0 mg/kg/injection, schedule: Q01DX009 (ip), vehicle: saline 100 % of control | dose: 25.0 mg/kg/injection, schedule: Q04DX003 (ip), vehicle: acetone 95 % of control | [1] 97 % of control | dose: 50.0 mg/kg/injection, schedule: Q04DX003 (ip), vehicle: acetone 92 % of control | [2] 89 % of control | [3] 94 % of control | dose: 100.0 mg/kg/injection, schedule: Q04DX003 (ip), vehicle: acetone 88 % of control

CC(C(=O)O)(c1ccccc1)c1ccccc1
inactive: dose: 100.0 mg/kg/injection, schedule: Q04DX002 (ip), vehicle: gum acacia 101 % of control | dose: 200.0 mg/kg/injection, schedule: Q04DX002 (ip), vehicle: gum acacia 96 % of control | dose: 400.0 mg/kg/injection, schedule: Q04DX002 (ip), vehicle: gum acacia 96 % of control

O=C1OC(c2ccccc2)(c2ccccc2)c2ccc3ccccc3c21
inactive: [4] 98 % of control | [5] 103 % of control | [6] 98 % of control

COc1cc(C(=O)O)cc(OC)c1OC
inactive: dose: 100.0 mg/kg/injection, schedule: Q04DX002 (ip), vehicle: other 103 % of control | dose: 200.0 mg/kg/injection, schedule: Q04DX002 (ip), vehicle: other 98 % of control | dose: 400.0 mg/kg/injection, schedule: Q04DX002 (ip), vehicle: other 98 % of control

COc1cccc[n+]1[O-]
inactive: [1] 94 % of control | [3] 101 % of control | dose: 100.0 mg/kg/injection, schedule: Q04DX003 (ip), vehicle: saline 96 % of control | dose: 200.0 mg/kg/injection, schedule: Q01DX009 (ip), vehicle: saline 89 % of control | dose: 200.0 mg/kg/injection, schedule: Q04DX003 (ip), vehicle: saline 92 % of control

O=C(NC(=S)Nc1ccccc1Cl)c1ccccc1
inactive: dose: 100.0 mg/kg/injection, schedule: Q04DX003 (ip), vehicle: Klucel (hydroxypropylcellulose) (HPC) 94 % of control | dose: 200.0 mg/kg/injection, schedule: Q04DX003 (ip), vehicle: Klucel (hydroxypropylcellulose) (HPC) 96 % of control | dose: 400.0 mg/kg/injection, schedule: Q04DX003 (ip), vehicle: Klucel (hydroxypropylcellulose) (HPC) 97 % of control

COc1ccc(/C=C/C(=O)c2ccc(OC)c(OCc3ccccc3)c2)cc1OC
inactive: dose: 100.0 mg/kg/injection, schedule: Q01DX009 (ip), vehicle: water 98 % of control | dose: 100.0 mg/kg/injection, schedule: Q04DX003 (ip), vehicle: water 98 % of control | dose: 200.0 mg/kg/injection, schedule: Q01DX009 (ip), vehicle: water 93 % of control | dose: 200.0 mg/kg/injection, schedule: Q04DX003 (ip), vehicle: water 94 % of control | dose: 400.0 mg/kg/injection, schedule: Q01DX009 (ip), vehicle: water 97 % of control | dose: 400.0 mg/kg/injection, schedule: Q04DX003 (ip), vehicle: water 98 % of control

O=C(O)[C@H](O)[C@@H](O)C(=O)O.[Ga]
inactive: [2] 106 % of control | [7] 100 % of control | [8] 104 % of control

CCC(C(=O)O)N(C)Cc1ccccc1 (configuration not stated)
inactive: [4] 92 % of control | [5] 89 % of control | [6] 89 % of control

O=C(Nc1ccccc1NC(=O)C(Cl)(Cl)Cl)C(Cl)(Cl)Cl
inactive: dose: 87.5 mg/kg/injection, schedule: Q01DX009 (ip), vehicle: carboxymethylcellulose (CMC) 88 % of control | dose: 175.0 mg/kg/injection, schedule: Q01DX009 (ip), vehicle: carboxymethylcellulose (CMC) 93 % of control | dose: 350.0 mg/kg/injection, schedule: Q01DX009 (ip), vehicle: carboxymethylcellulose (CMC) 96 % of control

O=C(N/N=C/c1cccnc1)c1cccc([N+](=O)[O-])c1
inactive: [9] 89 % of control | [10] 95 % of control | [11] 101 % of control

Clc1ccc(-c2nnc3c4ccccc4ccn23)cc1
inactive: [2] 104 % of control | [7] 93 % of control | [8] 98 % of control

Nc1nc(N)c2c(n1)SCC(c1ccc(Cl)cc1)=N2
inactive: dose: 75.0 mg/kg/injection, schedule: Q01DX001 (ip), vehicle: other 101 % of control | dose: 150.0 mg/kg/injection, schedule: Q01DX001 (ip), vehicle: other 98 % of control

Cc1ccccc1C1=CCCCC1
inactive: dose: 50.0 mg/kg/injection, schedule: Q01DX001 (ip), vehicle: carboxymethylcellulose (CMC) 87 % of control | dose: 100.0 mg/kg/injection, schedule: Q01DX001 (ip), vehicle: carboxymethylcellulose (CMC) 104 % of control | dose: 200.0 mg/kg/injection, schedule: Q01DX001 (ip), vehicle: carboxymethylcellulose (CMC) 96 % of control | dose: 400.0 mg/kg/injection, schedule: Q01DX001 (ip), vehicle: carboxymethylcellulose (CMC) 97 % of control

CCCCN1CC2CCCC1O2 (configuration not stated)
inactive: dose: 50.0 mg/kg/injection, schedule: Q01DX001 (ip), vehicle: saline 97 % of control | [2] 95 % of control

CCN=C(N)c1ccc(NC(=O)Nc2ccc(NC(=O)Nc3ccc(C(N)=NCC)cc3)cc2)cc1
inactive: dose: 0.31 mg/kg/injection, schedule: Q01DX Z (ip), vehicle: carboxymethylcellulose (CMC) 98 % of control | dose: 0.62 mg/kg/injection, schedule: Q01DX Z (ip), vehicle: carboxymethylcellulose (CMC) 97 % of control | dose: 1.25 mg/kg/injection, schedule: Q01DX Z (ip), vehicle: carboxymethylcellulose (CMC) 90 % of control | dose: 2.5 mg/kg/injection, schedule: Q01DX Z (ip), vehicle: carboxymethylcellulose (CMC) 107 % of control

CCC(CC)CC1CN2CCc3cc(OC)c(OC)cc3C2CC1(O)CC (configuration not stated)
inactive: dose: 3.12 mg/kg/injection, schedule: Q01DX009 (ip), vehicle: Klucel (hydroxypropylcellulose) (HPC) 93 % of control | dose: 6.25 mg/kg/injection, schedule: Q01DX009 (ip), vehicle: Klucel (hydroxypropylcellulose) (HPC) 97 % of control | dose: 12.5 mg/kg/injection, schedule: Q01DX009 (ip), vehicle: Klucel (hydroxypropylcellulose) (HPC) 109 % of control | dose: 25.0 mg/kg/injection, schedule: Q01DX009 (ip), vehicle: Klucel (hydroxypropylcellulose) (HPC) 119 % of control | dose: 25.0 mg/kg/injection, schedule: Q04DX003 (ip), vehicle: Klucel (hydroxypropylcellulose) (HPC) 115 % of control | [12] 97 % of control | dose: 50.0 mg/kg/injection, schedule: Q04DX003 (ip), vehicle: Klucel (hydroxypropylcellulose) (HPC) 99 % of control

NC(=O)C1=C(N)c2ccccc2C1c1ccccc1 (configuration not stated)
inactive: [2] 101 % of control | [7] 97 % of control | [8] 97 % of control

O=NN(CCCl)C(=O)Nc1cccc2cccnc12
inactive: dose: 0.62 mg/kg/injection, schedule: Q01DX001 (ip), vehicle: carboxymethylcellulose (CMC) 112 % of control | dose: 1.25 mg/kg/injection, schedule: Q01DX001 (ip), vehicle: carboxymethylcellulose (CMC) 117 % of control | dose: 2.5 mg/kg/injection, schedule: Q01DX001 (ip), vehicle: carboxymethylcellulose (CMC) 117 % of control

Nc1ccccc1/C=C/c1ccncc1
inactive: [12] 100 % of control | [9] 92 % of control | [10] 101 % of control | [11] 100 % of control

COC1=NS(=O)(=O)C2(O1)c1ccccc1-c1ccccc12
inactive: dose: 100.0 mg/kg/injection, schedule: Q04DX002 (ip), vehicle: Klucel (hydroxypropylcellulose) (HPC) 96 % of control | dose: 200.0 mg/kg/injection, schedule: Q04DX002 (ip), vehicle: Klucel (hydroxypropylcellulose) (HPC) 96 % of control | dose: 400.0 mg/kg/injection, schedule: Q04DX002 (ip), vehicle: Klucel (hydroxypropylcellulose) (HPC) 116 % of control
